“And” between values parts separate entries of the source, which are not always exact repeats. Identical values can stand only once.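 Five compound concentrations were applied to cells in 96-well plates for 48 hours; endpoints were derived by simple linear interpolation of the resulting dose-response curve. The concentration for 50% growth inhibition is given as GI50. Definition used: TGI = concentration required for complete inhibition of growth.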 Bounds are passed on as bounds.

In the first test the test system is HCC-2998 colon. Description: growth of human tumour cells (NCI), 48 h.
The compound `Nc1nc(N)c(N=Nc2ccc([As](=O)(O)O)cc2)c(=O)[nH]1` returned a TGI above 100 µM.
For `COc1ccc2[nH]cc(-c3nc(-c4c[nH]c5ncccc45)cs3)c2c1`, the GI50 was 67.3 µM and the TGI was above 100 µM.
For `CCOC(=O)C(=Cc1cccc(Cl)c1)C(=O)OCC`, in that order: 1.79 µM and 3.24 µM.
As for `C=CC(=O)N1CCC(C2CCNc3c(C(N)=O)c(-c4ccc(Oc5ccccc5)cc4)nn32)CC1` (stereo not drawn), the GI50 was 14.8 µM and the TGI was 28.6 µM.
For `Cc1ccc(/C=C/c2c(C(=O)/C=C/c3ccc(C(F)(F)F)cc3)c(C)nc3ccccc23)cc1`, in that order: 1.48 µM and 2.81 µM.
As for `C=CCc1cccc(/C=N/NC(=O)CN2CCN(Cc3ccccc3)CC2)c1O`, the GI50 is 2.74 µM and the TGI was found to be 17.1 µM.
As for `N=c1ccn2c(n1)OC1C(O)C(CO)OC12` (stereo not drawn), the GI50 is 0.0303 µM.
With `C[C@H]1Oc2cc(cnc2N)-c2c(nn(C)c2C#N)CN(C)C(=O)c2ccc(F)cc21`, the GI50 is above 89 µM and the TGI is above 100 µM.
Turning to `COc1ccccc1N1CCN(CCCn2c(=O)c3c(OC)nc(C)cc3c(=O)n2-c2ccccc2)CC1`, the GI50 is above 100 µM and the TGI was above 100 µM.
In turn, `N#Cc1c(-c2ccc(F)cc2)c(-c2ccc(F)cc2)nn(CCO)c1=O` displayed a TGI of 28.4 µM.
As for `CC(=O)c1cc2c(o1)C(=O)c1ccccc1C2=O`, the GI50 was 0.46 µM and 0.261 µM; the TGI was 0.993 µM and 0.689 µM.
As to `CCN(CC)c1nc(-c2ccc(Cl)cc2Cl)nc2ccccc12`, the GI50 is 16.7 µM and the TGI was found to be 31.7 µM.
`Cc1nc2ccccc2nc1-c1ccc(N=[N+]([O-])c2ccc(-c3nc4ccccc4nc3C)cc2)cc1`: the TGI is above 100 µM.

The subject of a further test is EKVX NSCLC. Put plainly: growth of human tumour cells (NCI), 48 h.
For the compound `Nc1nc(N)c(N=Nc2ccc([As](=O)(O)O)cc2)c(=O)[nH]1`, the TGI was above 100 µM.
Take `COc1ccc2[nH]cc(-c3nc(-c4c[nH]c5ncccc45)cs3)c2c1`: the GI50 is 5.79 µM and the TGI was above 100 µM.
Turning to `CCOC(=O)C(=Cc1cccc(Cl)c1)C(=O)OCC`, the GI50 was 3.75 µM and the TGI amounted to 14.3 µM.
For `C=CC(=O)N1CCC(C2CCNc3c(C(N)=O)c(-c4ccc(Oc5ccccc5)cc4)nn32)CC1` (stereo not drawn), in that order: 3.49 µM and 42 µM.
Turning to `Cc1ccc(/C=C/c2c(C(=O)/C=C/c3ccc(C(F)(F)F)cc3)c(C)nc3ccccc23)cc1`, the GI50 was 1.53 µM and the TGI is 3.36 µM.
On to `C=CCc1cccc(/C=N/NC(=O)CN2CCN(Cc3ccccc3)CC2)c1O`, for which the GI50 is 2.49 µM and the TGI was 12.8 µM.
As to `N=c1ccn2c(n1)OC1C(O)C(CO)OC12` (stereo not drawn), the GI50 was above 100 µM and the TGI was above 1000 µM.
The like results for `C[C@H]1Oc2cc(cnc2N)-c2c(nn(C)c2C#N)CN(C)C(=O)c2ccc(F)cc21` were, in that order, 16 µM and above 100 µM.
For `COc1ccccc1N1CCN(CCCn2c(=O)c3c(OC)nc(C)cc3c(=O)n2-c2ccccc2)CC1`, the GI50 was above 100 µM and the TGI is above 100 µM.
Take `N#Cc1c(-c2ccc(F)cc2)c(-c2ccc(F)cc2)nn(CCO)c1=O`: the TGI is above 76.6 µM.
With `CC(=O)c1cc2c(o1)C(=O)c1ccccc1C2=O`, the GI50 was 1.19 µM and 1.55 µM; the TGI was 2.96 µM and 3.41 µM.
In the case of `CCN(CC)c1nc(-c2ccc(Cl)cc2Cl)nc2ccccc12`, the GI50 was 0.333 µM and the TGI was determined as 5.05 µM.
`Cc1nc2ccccc2nc1-c1ccc(N=[N+]([O-])c2ccc(-c3nc4ccccc4nc3C)cc2)cc1` registered a TGI above 100 µM.

The next test concerns OVCAR-3 ovarian. Description: growth of human tumour cells (NCI), 48 h.
Regarding `Nc1nc(N)c(N=Nc2ccc([As](=O)(O)O)cc2)c(=O)[nH]1`, the TGI was above 100 µM.
Take `COc1ccc2[nH]cc(-c3nc(-c4c[nH]c5ncccc45)cs3)c2c1`: the GI50 is 6.04 µM and the TGI is above 100 µM.
As for `CCOC(=O)C(=Cc1cccc(Cl)c1)C(=O)OCC`, the GI50 was 1.86 µM and the TGI is 3.6 µM.
With `C=CC(=O)N1CCC(C2CCNc3c(C(N)=O)c(-c4ccc(Oc5ccccc5)cc4)nn32)CC1` (stereo not drawn), the GI50 was 12.2 µM and the TGI is 56.2 µM.
`Cc1ccc(/C=C/c2c(C(=O)/C=C/c3ccc(C(F)(F)F)cc3)c(C)nc3ccccc23)cc1`: the GI50 was 1.55 µM and the TGI turned out to be 3.82 µM.
On to `C=CCc1cccc(/C=N/NC(=O)CN2CCN(Cc3ccccc3)CC2)c1O`, for which the GI50 was 0.808 µM and the TGI is 6.32 µM.
Take `N=c1ccn2c(n1)OC1C(O)C(CO)OC12` (stereo not drawn): the GI50 is 163 µM and 99.6 µM; the TGI was above 1000 µM.
For `C[C@H]1Oc2cc(cnc2N)-c2c(nn(C)c2C#N)CN(C)C(=O)c2ccc(F)cc21`, the GI50 is above 89.3 µM and the TGI is above 100 µM.
For `COc1ccccc1N1CCN(CCCn2c(=O)c3c(OC)nc(C)cc3c(=O)n2-c2ccccc2)CC1`, in that order: above 100 µM and above 100 µM.
`N#Cc1c(-c2ccc(F)cc2)c(-c2ccc(F)cc2)nn(CCO)c1=O`: the TGI was 0.69 µM.
Take `CC(=O)c1cc2c(o1)C(=O)c1ccccc1C2=O`: the GI50 is 0.218 µM and 0.225 µM; the TGI is 0.507 µM and 0.529 µM.
In the case of `CCN(CC)c1nc(-c2ccc(Cl)cc2Cl)nc2ccccc12`, the GI50 was 15.7 µM and the TGI is 47.2 µM.
`Cc1nc2ccccc2nc1-c1ccc(N=[N+]([O-])c2ccc(-c3nc4ccccc4nc3C)cc2)cc1` displayed a TGI above 100 µM.

The next test relates to SK-OV-3 ovarian. Description: growth of human tumour cells (NCI), 48 h.
`Nc1nc(N)c(N=Nc2ccc([As](=O)(O)O)cc2)c(=O)[nH]1` came in with a TGI above 100 µM.
As to `COc1ccc2[nH]cc(-c3nc(-c4c[nH]c5ncccc45)cs3)c2c1`, the GI50 is 4.41 µM and the TGI is above 100 µM.
As to `CCOC(=O)C(=Cc1cccc(Cl)c1)C(=O)OCC`, the GI50 was 10.6 µM and the TGI stood at 22.4 µM.
In the case of `C=CC(=O)N1CCC(C2CCNc3c(C(N)=O)c(-c4ccc(Oc5ccccc5)cc4)nn32)CC1` (stereo not drawn), the GI50 is 0.572 µM and the TGI turned out to be 5.33 µM.
For `Cc1ccc(/C=C/c2c(C(=O)/C=C/c3ccc(C(F)(F)F)cc3)c(C)nc3ccccc23)cc1`, the GI50 was 1.8 µM and the TGI is 3.6 µM.
For the compound `C=CCc1cccc(/C=N/NC(=O)CN2CCN(Cc3ccccc3)CC2)c1O`, the GI50 is 2.88 µM and the TGI stood at 17.8 µM.
Consider `N=c1ccn2c(n1)OC1C(O)C(CO)OC12` (stereo not drawn), for which the GI50 is 5.43 µM and the TGI was above 696 µM.
The like results for `C[C@H]1Oc2cc(cnc2N)-c2c(nn(C)c2C#N)CN(C)C(=O)c2ccc(F)cc21` were, in that order, 22.1 µM and above 87 µM.
Take `COc1ccccc1N1CCN(CCCn2c(=O)c3c(OC)nc(C)cc3c(=O)n2-c2ccccc2)CC1`: the GI50 was above 100 µM and the TGI is above 100 µM.
Turning to `N#Cc1c(-c2ccc(F)cc2)c(-c2ccc(F)cc2)nn(CCO)c1=O`, the TGI is above 49.6 µM.
With `CC(=O)c1cc2c(o1)C(=O)c1ccccc1C2=O`, the GI50 was 1.41 µM and 1.78 µM; the TGI was 2.86 µM and 3.3 µM.
Regarding `CCN(CC)c1nc(-c2ccc(Cl)cc2Cl)nc2ccccc12`, the GI50 was 26.5 µM and the TGI is above 79.9 µM.
`Cc1nc2ccccc2nc1-c1ccc(N=[N+]([O-])c2ccc(-c3nc4ccccc4nc3C)cc2)cc1` returned a TGI above 82.5 µM.

Another test relates to OVCAR-5 ovarian. Description: growth of human tumour cells (NCI), 48 h.
`Nc1nc(N)c(N=Nc2ccc([As](=O)(O)O)cc2)c(=O)[nH]1`: the TGI was above 100 µM.
As for `COc1ccc2[nH]cc(-c3nc(-c4c[nH]c5ncccc45)cs3)c2c1`, the GI50 was above 100 µM and the TGI is above 100 µM.
Regarding `CCOC(=O)C(=Cc1cccc(Cl)c1)C(=O)OCC`, the GI50 is 1.8 µM and the TGI is 3.54 µM.
The like results for `C=CC(=O)N1CCC(C2CCNc3c(C(N)=O)c(-c4ccc(Oc5ccccc5)cc4)nn32)CC1` (stereo not drawn) were, in that order, 31.2 µM and above 100 µM.
For the compound `Cc1ccc(/C=C/c2c(C(=O)/C=C/c3ccc(C(F)(F)F)cc3)c(C)nc3ccccc23)cc1`, the GI50 is 1.84 µM and the TGI is 4.25 µM.
For `C=CCc1cccc(/C=N/NC(=O)CN2CCN(Cc3ccccc3)CC2)c1O`, the GI50 is 4.46 µM and the TGI came to 18.1 µM.
Turning to `N=c1ccn2c(n1)OC1C(O)C(CO)OC12` (stereo not drawn), the TGI was 380 µM and > 100 µM.
For the compound `C[C@H]1Oc2cc(cnc2N)-c2c(nn(C)c2C#N)CN(C)C(=O)c2ccc(F)cc21`, the GI50 is 5.24 µM and the TGI is above 100 µM.
`COc1ccccc1N1CCN(CCCn2c(=O)c3c(OC)nc(C)cc3c(=O)n2-c2ccccc2)CC1`: the GI50 was above 100 µM and the TGI was above 100 µM.
On to `N#Cc1c(-c2ccc(F)cc2)c(-c2ccc(F)cc2)nn(CCO)c1=O`, for which the TGI was above 100 µM.
Regarding `CC(=O)c1cc2c(o1)C(=O)c1ccccc1C2=O`, the GI50 was 0.181 µM and 0.186 µM; the TGI is 0.346 µM and 0.345 µM.
On to `CCN(CC)c1nc(-c2ccc(Cl)cc2Cl)nc2ccccc12`, for which the GI50 was 26.1 µM and the TGI is above 68.1 µM.
On to `Cc1nc2ccccc2nc1-c1ccc(N=[N+]([O-])c2ccc(-c3nc4ccccc4nc3C)cc2)cc1`, for which the TGI was above 100 µM.

These data come from PubChem BioAssay (NCI).
